The target of the experiment is T1, Human Akt1 (UniProt entry P31749) (Homo sapiens, UniProt P31749, C296S/C310S/C344S/E49C).
T1 construct: made in house; host or cells: baculovirus, TriEx Sf9 cells
The experiment can be described thus: iFLiK assay (fluorophore-labeled Akt1 binding assay). To be noted: for effect on PyMPO fluorescence (emission spectrum): PyMPO-labeled Akt1. Here is the method:
Measurements were carried out in black 384-well plates (Greiner Bio One). Labeled Akt1 was diluted to 200 nM in the measurement buffer consisting of 50 mM HEPES pH 7.4, 200 mM NaCl and 0.01% Triton-X 100. Dilution series of candidate compounds were prepared in DMSO at 21X the final desired concentration. Compounds (0.5 µL) were then mixed with labeled Akt1 (10 µL) in triplicates and with measurement buffer only in quadruplicates at 12 different concentrations to achieve final compound concentrations ranging from 0.8 nM to […]. Each well contained 5% v/v DMSO after mixing. Plates were then covered with an adhesive plastic foil and incubated for 2 h at RT prior to measurement of emission intensities at fluorophore-specific wavelengths (Table 1) using a Tecan Infinite M1000 plate reader. Compound auto-fluorescence was compensated by subtraction of the average background signals obtained in the absence of labeled kinase. The respective assay readout for the various Akt-fluorophore conjugates specified in Table 1 were fit to a Hill 4-parameter equation to determine Kd values for allosteric Akt ligands. Each reaction was performed in triplicate and at least three independent measurements of each Kd were determined for each ligand. Table 1: Overview of fluorophore probes.
Screening initiatives were carried out in black 384-well plates (Greiner Bio One). PyMPO-labeled Akt1 was diluted to 200 nM in the measurement buffer consisting of 50 mM HEPES pH 7.4, 200 mM Nacl and 0.01% Triton-X 100. Each candidate compound was prepared in DMSO at 210 µM. Compounds (0.5 µL) were then mixed each with labeled Akt1 (10 µL) and with measurement buffer only to achieve final compound concentrations of 10 µM. Each well contained 5% v/v DMSO after mixing. Plates were then covered with an adhesive plastic foil and incubated for 2 h at RT prior to measurement using a Tecan Infinite M1000 plate reader emission intensities at 508 nm and 638 nm, using both 419 nm and 440 nm for excitation. Compound auto-fluorescence was compensated by subtraction of the average background signals obtained in the absence of labeled kinase. Ratio of fluorescence intensities fl638/fl508 were calculated from the background-subtracted values. For hit picking criteria, see Table 2 below.

T1 sequence (P31749 whole entry E49C/C296S/C310S/C344S, one chain of several): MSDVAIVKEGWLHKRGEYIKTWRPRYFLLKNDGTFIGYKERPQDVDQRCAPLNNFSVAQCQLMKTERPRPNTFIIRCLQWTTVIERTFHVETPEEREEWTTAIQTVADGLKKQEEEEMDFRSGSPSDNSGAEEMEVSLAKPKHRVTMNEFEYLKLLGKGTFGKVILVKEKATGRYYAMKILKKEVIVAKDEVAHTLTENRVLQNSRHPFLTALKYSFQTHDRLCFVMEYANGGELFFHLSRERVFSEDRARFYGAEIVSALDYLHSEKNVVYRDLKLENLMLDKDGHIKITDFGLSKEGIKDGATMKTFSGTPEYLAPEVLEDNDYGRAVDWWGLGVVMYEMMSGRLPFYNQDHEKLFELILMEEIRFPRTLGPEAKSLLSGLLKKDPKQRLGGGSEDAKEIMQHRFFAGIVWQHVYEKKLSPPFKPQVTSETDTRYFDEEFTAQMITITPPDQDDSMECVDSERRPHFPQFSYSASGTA

For `CCn1c(-c2nonc2N)nc2c(C#CC(C)(C)O)ncc(OC[C@H]3CCCNC3)c21` [GSK690693], the “effect on PyMPO fluorescence (emission spectrum)” value is on record as “no effect”. Moreover, under “collection of fluorophore-labeled kinases, dilution series 0.8 nM to 50 µM”, the “response of the labeled kinase” value is given as “unresponsive”.
In the case of `NC1(Cc2ccc(Cl)cc2)CCN(c2ncnc3[nH]ccc23)CC1` [CCT128930], the “effect on PyMPO fluorescence (emission spectrum)” value is on record as “no effect”.
Same read-out and setting: for `NC1(c2ccc(-c3nc4ccn5c(=O)[nH]nc5c4cc3-c3ccccc3)cc2)CCC1` [MK-2206] the value was “bathochromic shift”; for `O=C(O[C@@H]1Cc2c(O)cc(O)cc2O[C@@H]1c1cc(O)c(=O)c2c(O)c(O)cc([C@H]3Oc4cc(O)cc(O)c4C[C@H]3O)c2c1)c1cc(O)c(O)c(O)c1` [XX8], “reduction of the fluorescence intensity”.

The values above are taken from patent publication EP2810648A1, “Targeting domain-domain interaction for the identification of kinase modulators” (Rauh, Daniel, priority 2013, dated 2014).
